Assay results taken from US20210246157A1, “CAMPTOTHECIN DERIVATIVES AND PREPARATION METHODS AND APPLICATIONS THEREOF” (priority 2018, published 2021).
In brackets after ≈: the same amount, converted by molar mass.

What was measured:
PC3 = assay: Cytotoxicity test (MTT, 72 h); conditions: Homo sapiens, PC-3, 72 h, read-out: 50% Inhibiting Concentration value (IC50)
Method: (§2) In order to investigate the antitumor activities of the compounds, a variety of tumor cell lines for test are selected. Cells at logarithmic growth period are inoculated in a 96-well plate overnight, then drugs with a certain gradient concentrations are added, and incubation is carried out in a cell culture chamber (5% CO2, 37° C.) for 72 h.

tumor = assay: Multi-dose in vivo antitumor activity, tumor volume (Example 20); parameters: species or system mice; conditions: for Mouse Tumor Volume: caudal vein once every 2 days
Method: (§1) The drugs are administered through the caudal veins of mice once every 2 days for a total of 7 times.
Tumor volume is measured every three days from day 0. The maximum diameter (a) of the tumor is measured first, and then the longest radial line (b) perpendicular to the maximum diameter is measured, using mm as unit. Tumor volume is calculated according to the following formula: […]

H1975 = assay: Cytotoxicity test (MTT, 72 h); conditions: Homo sapiens, NCI-H1975, 72 h, read-out: 50% Inhibiting Concentration value (IC50)
Method: as §2

HepG2 = assay: Cytotoxicity test (MTT, 72 h); conditions: Homo sapiens, HepG2, 72 h, read-out: 50% Inhibiting Concentration value (IC50)
Method: as §2

143B = assay: Cytotoxicity test (MTT, 72 h); conditions: Homo sapiens, read-out: 50% Inhibiting Concentration value (IC50)
Method: as §2

[1] = Multi-dose in vivo antitumor activity study, mouse weight (Example 20); parameters: species or system mice; conditions: caudal vein once every 2 days
Method: as §1
At the end of the treatment cycle, the orbital venous blood of the mice is collected for later blood routine test, the mice are killed by cervical dislocation method, and tumors are removed immediately and photographed. From day 0, the mice in each group are weighed every three days, and the weights are recorded. The weight average value of each group is calculated, and mouse weight variation curve is drawn according to statistical data. At the end of the treatment cycle, tumors are removed from anesthetized mice immediately and weighted, and the tumor weight of each group is recorded. The tumor inhibition rate (%) is calculated according to the following formula: […]

[2] = In vivo antitumor activity study, mouse weight (Example 19); parameters: species or system mice; conditions: 13.73 mg/kg i.v. once every three days
PANC-1 = assay: Cytotoxicity test (MTT, 72 h); conditions: Homo sapiens, PANC-1, 72 h, read-out: 50% Inhibiting Concentration value (IC50)
Method: (§3) Cells at logarithmic growth period are inoculated in a 96-well plate overnight, then drugs with a certain gradient concentrations are added, and incubation is carried out in a cell culture chamber (5% CO2, 37° C.) for 72 h.

TPC-1 = assay: Cytotoxicity test (MTT, 72 h); conditions: Homo sapiens, TPC1, 72 h, read-out: 50% Inhibiting Concentration value (IC50)
Method: as §3

HT-29 = assay: Cytotoxicity test (MTT, 72 h); conditions: Homo sapiens, HT-29, 72 h, read-out: 50% Inhibiting Concentration value (IC50)
Method: as §3

SW-480 = assay: Cytotoxicity test (MTT, 72 h); conditions: Homo sapiens, SW480, 72 h, read-out: 50% Inhibiting Concentration value (IC50)
Method: as §3

K562 = assay: Cytotoxicity test (MTT, 72 h); conditions: Homo sapiens, K562, 72 h, read-out: 50% Inhibiting Concentration value (IC50)
Method: as §2

[3] = system: colon cancer cells SW-480; assay: In vivo antitumor activity, tumor volume (Example 19); parameters: species or system mice; conditions: for Mouse Tumor Volume: 13.73 mg/kg i.v. once every three days, average, n = 6
[4] = Solubility test, equilibrium method, UV-visible spectrophotometry; assay type: physicochemical; conditions: thermodynamic from solid
How it was run: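 Equilibrium solubility measured by UV-visible spectrophotometry. Reference solution of known concentration (C0) prepared in methanol; test concentration calculated as Cx=(Ax/A0)C0 from absorbance ratio of test to reference solution.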

[5] = day 0, high-dose group (H) 13.73 mg/kg
[6] = day 0, low-dose group (L) 3.433 mg/kg
[7] = day 0, medium-dose group (M) 6.865 mg/kg
[8] = day 3, high-dose group (H) 13.73 mg/kg
[9] = day 3, low-dose group (L) 3.433 mg/kg
[10] = day 3, medium-dose group (M) 6.865 mg/kg
[11] = day 6, high-dose group (H) 13.73 mg/kg
[12] = day 6, low-dose group (L) 3.433 mg/kg
[13] = day 6, medium-dose group (M) 6.865 mg/kg
[14] = day 9, high-dose group (H) 13.73 mg/kg
[15] = day 9, low-dose group (L) 3.433 mg/kg
[16] = day 9, medium-dose group (M) 6.865 mg/kg
[17] = day 12, high-dose group (H) 13.73 mg/kg
[18] = day 12, low-dose group (L) 3.433 mg/kg
[19] = day 12, medium-dose group (M) 6.865 mg/kg
[20] = day 15, high-dose group (H) 13.73 mg/kg
[21] = day 15, low-dose group (L) 3.433 mg/kg
[22] = day 15, medium-dose group (M) 6.865 mg/kg
[23] = day 18, high-dose group (H) 13.73 mg/kg
[24] = day 18, low-dose group (L) 3.433 mg/kg
[25] = day 18, medium-dose group (M) 6.865 mg/kg
[26] = day 21, high-dose group (H) 13.73 mg/kg
[27] = day 21, low-dose group (L) 3.433 mg/kg
[28] = day 21, medium-dose group (M) 6.865 mg/kg

CCc1c2c(nc3ccc(OC(=O)OCCOCCOCCOCc4cn(CCO[C@H]5O[C@@H](CO)[C@H](O)[C@@H](O)[C@@H]5O)nn4)cc13)-c1cc3c(c(=O)n1C2)COC(=O)[C@]3(O)CC [Compound 58]
IC50 (PC3): 2.53 µM | Mouse Tumor Volume (tumor; [5]): 120.63 mm^3 | Mouse Tumor Volume (tumor; [6]): 110.67 mm^3 | Mouse Tumor Volume (tumor; [7]): 113.01 mm^3 | Mouse Tumor Volume (tumor; [8]): 151.62 mm^3 | Mouse Tumor Volume (tumor; [9]): 164.30 mm^3 | Mouse Tumor Volume (tumor; [10]): 106.18 mm^3 | Mouse Tumor Volume (tumor; [11]): 206.78 mm^3 | Mouse Tumor Volume (tumor; [12]): 235.34 mm^3 | Mouse Tumor Volume (tumor; [13]): 122.56 mm^3 | Mouse Tumor Volume (tumor; [14]): 254.08 mm^3 | Mouse Tumor Volume (tumor; [15]): 252.37 mm^3 | Mouse Tumor Volume (tumor; [16]): 151.19 mm^3 | Mouse Tumor Volume (tumor; [17]): 317.44 mm^3 | Mouse Tumor Volume (tumor; [18]): 316.07 mm^3 | Mouse Tumor Volume (tumor; [19]): 141.38 mm^3 | Mouse Tumor Volume (tumor; [20]): 430.78 mm^3 | Mouse Tumor Volume (tumor; [21]): 375.47 mm^3 | Mouse Tumor Volume (tumor; [22]): 141.13 mm^3 | Mouse Tumor Volume (tumor; [23]): 519.79 mm^3 | Mouse Tumor Volume (tumor; [24]): 401.94 mm^3 | Mouse Tumor Volume (tumor; [25]): 134.18 mm^3 | Mouse Tumor Volume (tumor; [26]): 555.67 mm^3 | Mouse Tumor Volume (tumor; [27]): 433.61 mm^3 | Mouse Tumor Volume (tumor; [28]): 142.06 mm^3 | increase of tumor volume compared with other groups (in words) (tumor; high-dose group, after last administration): slowest increase | tumor inhibition effects of the high-dose groups compared with CPT-11 (in words) (tumor; high-dose groups, same dosage (10 mg/kg), p<0.001): better than that of positive control group CPT-11 | dose dependence of tumor inhibition (in words) (tumor; low, medium and high dose): dose-dependent | IC50 (H1975): 9.35 µM | IC50 (HepG2): 0.625 µM | IC50 (143B): 7.79 µM | Mouse Weight [1, 5]: 16.69 g | Mouse Weight [1, 6]: 17.94 g | Mouse Weight [1, 7]: 16.55 g | Mouse Weight [1, 8]: 17.60 g | Mouse Weight [1, 9]: 16.34 g | Mouse Weight [1, 10]: 16.61 g | Mouse Weight [1, 11]: 16.26 g | Mouse Weight [1, 12]: 16.36 g | Mouse Weight [1, 13]: 15.81 g | Mouse Weight [1, 14]: 17.28 g | Mouse Weight [1, 15]: 17.00 g | Mouse Weight [1, 16]: 17.23 g | Mouse Weight [1, 17]: 16.88 g | Mouse Weight [1, 18]: 16.96 g | Mouse Weight [1, 19]: 16.17 g | Mouse Weight [1, 20]: 16.61 g | Mouse Weight [1, 21]: 16.41 g | Mouse Weight [1, 22]: 15.46 g | Mouse Weight [1, 23]: 16.06 g | Mouse Weight [1, 24]: 17.28 g | Mouse Weight [1, 25]: 16.47 g | Mouse Weight [1, 26]: 16.50 g | Mouse Weight [1, 27]: 16.97 g | Mouse Weight [1, 28]: 16.65 g | Mouse Weight ([2]; day 0): 23.57 g | Mouse Weight ([2]; day 3): 23.71 g | Mouse Weight ([2]; day 6): 24.00 g | Mouse Weight ([2]; day 9): 24.76 g | Mouse Weight ([2]; day 12): 24.93 g | Mouse Weight ([2]; day 15): 24.34 g | Mouse Weight ([2]; day 18): 24.04 g | Mouse Weight ([2]; day 21): 24.12 g | IC50 (PANC-1): 3.65 µM | IC50 (TPC-1): 11.2 µM | IC50 (HT-29): 5.25 µM | IC50 (SW-480): 0.254 µM | IC50 (K562): 1.66 µM | Mouse Tumor Volume ([3]; day 0): 235.22 mm^3 | Mouse Tumor Volume ([3]; day 3): 202.08 mm^3 | Mouse Tumor Volume ([3]; day 6): 98.87 mm^3 | Mouse Tumor Volume ([3]; day 9): 118.41 mm^3 | Mouse Tumor Volume ([3]; day 12): 80.63 mm^3 | Mouse Tumor Volume ([3]; day 15): 38.37 mm^3 | Mouse Tumor Volume ([3]; day 18): 40.03 mm^3 | Mouse Tumor Volume ([3]; day 21): 7.16 mm^3 | inhibition rates on colon cancer cell SW-480 compared with CPT-11 (in words) ([3]; dosage two-thirds of the molar fraction of CPT-11): significantly higher inhibition rates | solubility ([4]; aqueous with cosolvent or surfactant or cyclodextrin): 5.33 mg/mL (≈ 6.23 mM) | solubility ([4]; pH 7.4, aqueous buffer): 1.58 mg/mL (≈ 1.84 mM) | solubility ([4]; saline or isotonic): 3.59 mg/mL (≈ 4.2 mM) | solubility ([4]; water): 2.55 mg/mL (≈ 2.98 mM)
